In data set [1] the test system is 293T human embryonic kidney cells over-expressing the ACE2 receptor. Description: Cytotoxicity assay in 293T/ACE2 cells. Particulars: 293T/ACE2 cytotoxicity.
A further data set has as its system MDA-MB-231. Briefly: Inhibition of mammary carcinoma cell line MDA-MB-231. Type of data set: cell-based. Particulars: Table 5; MDA-MB-231, human, Basal, HER2−. On the procedure: (§1) 3-(4,5-Dimethylthiazol-2-yl)-2,5-diphenyltetrazolium Bromide (MTT) Cell Proliferation Assay. To cells grown in 96-well-tissue culture plate, 20 μl/well of MTT solution (5 mg/ml in PBS) was added. After 1-2 hours incubation at 37° C., the plate was centrifuged. Supernatant was discarded and 100 μl DMSO was added to dissolve water insoluble formazan, and the absorbance was read at 540 nm with a plate reader.

A short description of data set [2]: Microsomal stability, human liver microsomes. Type of data set: in vitro ADME. The settings on record: for parent metabolite peak area after 60 min: 10 μM, human liver microsomes 1 mg/mL, NADPH 2 mM, 37° C.; for degradation pathways: human or mouse liver microsomes. On the procedure: Microsomal stability of HBB and HCB were evaluated in human and mouse liver microsomes. 10 μM of HBB or HCB was tested in a biological matrix comprising of human or mouse liver microsomes (1 mg/mL) (Table 6). NADPH (2mM) was added as a cofactor. Total volume was 200 μL.
HBB or HCB was incubated for 0, 30, or 60 min at 37° C. Incubations were quenched with 2 volumes of acetonitrile followed by centrifugation for 10 min at 16,000 g.
For orientation: Liver microsomes are a subcellular fraction often used to study metabolism.

Another data set deals with LR/FR MCF7A1C cells. Briefly: Crystal violet cell proliferation assay, LR,FR-MCF7AC1. The settings on record: for IC50: Homo sapiens, read-out: IC50, LR/FR MCF7A1C cells. The format is cell-based, human. On the procedure:
Derivation process of LR-FR- and LR-FR-PR resistant MCF7AC1 cells. The letrozole-resistant MCF7AC1 cell line (LR-MCF7AC1) was generated in vivo from the aromatase-expressing MCF7A C1 tumor-bearing athymic female nude mice that received letrozole therapy (10 μg/day, five days a week) over a period of 27 weeks. To facilitate tumor growth mice also received the estrogen precursor androstenedione (100 μg/day, five days a week), which is intratumorally converted by aromatase into estradiol (Yue W, et al. Cancer Res. 1994; 54(19):5092-5). With the emergence of the letrozole resistant tumors, these tumors were harvested from in vivo and the LR-MCF7AC1 cell line was established in vitro (Jayaraman S., et al. Breast Cancer Res. 2020; 22(1):51), where the cells grew in phenol-red free IMEM+10% FBS media containing antibiotics.
In a second in vivo study, the LR-MCF7AC1 tumor-bearing athymic female nude mice were randomized to multiple endocrine therapies including fulvestrant therapy (1000 μg/day, five days a week). One mouse harboring the LR-MCF7AC1 tumor began to develop resistance to fulvestrant therapy at 31 weeks of treatment. This fulvestrant-resistant LR-MCF7AC1 tumor was harvested from mice and reimplanted into mice for two successive generations. The 2nd generation tumor was harvested from in vivo and the LR,FR-MCF7AC1 cell line was established in vitro, where the cells grew in phenol-red free IMEM+10% FBS media containing antibiotics.
Cell proliferation assay: The cells mentioned in this study were seeded in 96 wells-plates (2000-4000 cells/well) and treated 24 hours later with DMSO (vehicle control), HCB or HBB drugs at the indicated concentrations. 72 hours later, the cells were fixed in situ with 25% (v/v) glutaraldehyde, followed by staining with 0.52% crystal violet (CV) in 25% methanol (Fisher Chemical). The CV stained plates were solubilized in 100 mM sodium citrate in 50% ethanol solution and absorbance of the stain measured at 550 nm using a plate reader. Each data point represents mean±SD, obtained from six wells per treatment performed in biological triplicates. […]

For a further data set, the system named is MCF-7 cells. Description: MTT cell proliferation assay, MCF-7. Type of data set: cell-based, human. The settings on record: MCF7. On the procedure: FIG. 8. Effects of HCB on the proliferation of MCF-7 cells. MCF-7 cells were seeded in 96 well plates and treated with drugs at varied concentration for 24 hours. MTT assay was performed to determine remaining viable cells in each well. Results are represented as mean±S.D. (n=7). IC50 was determined by curve fitting.
as §1
Background: Tetrazolium dyes change colour on reduction, which living cells bring about.

Data set [3] has as its system mm006. Description: Inhibition of mammary carcinoma cell line mm006. Type of data set: cell-based, mouse (C57BL/6). Particulars: Mus musculus, read-out: IC50 (uM), mm006. On the procedure: as §1
The subject of data set [4] is mm006. Description: Oxygen consumption rate (OCR), mm006. The format is cell-based, mouse (C57BL/6). On the procedure:
Measurement of oxygen consumption rate (OCR). Cells were maintained in growth medium consisting of 10% FBS at 37° C. with 5% CO2 and seeded at 25,000 cells per well in a 96-well XF96 cell culture microplates (Agilent, Santa Clara, CA). An 96 well XF sensor cartridge was hydrated and equilibrated with 200 ul calibrant in each well at 37° C. without CO2 overnight. Growth media was replaced with 150 μL DMEM based assay media (a non-buffered medium including 2 mM L-glutamine but no sodium bicarbonate (buffering agent), glucose, or sodium pyruvate, Agilent, Santa Clara, CA) the next day and cells were incubated CO2 free for 1 hour before the measurement of OCR by a Seahorse XFe Extracellular Flux Analyzer (Agilent, Santa Clara, CA), which measures uptake and excretion of metabolic end products in real time. After baseline measurements, 20 μl assay medium containing control vehicle or drugs were injected into corresponding wells. OCRs were measured periodically and can be reported in pmoles/minute or normalized against baseline measurements before treatment.

Setting [5] is: Table 5, MCF-7, human, ERα+, HER2−, read-out: IC50 (uM), MCF-7.

Read-outs that look alike come from different tables or passages of the source.

As to `CCCCCCNC(=N)NC(=N)NCc1ccccc1` [HBB, N1-hexyl-N5-benzyl-biguanide], the CC10 in data set [1] amounted to 1.5 µM. Also, the IC50 is 18.5 µM with MDA-MB-231, 3900 nM in the data set with LR/FR MCF7A1C cells (72 h), 22.2 µM with MCF-7 cells (setting [5]) and 38.5 µM in the data set with mm006 [3]. In data set [2], the “parent metabolite peak area after 60 min” value is reported as 19.19%. The degradation pathways result in data set [2] was “oxidation, dehydrogenation, and glucuronidation”.

In the case of `CCCCCCNC(=N)NC(=N)NCC12C3C4C5C3C1C5C42` (centres unmarked) [HCB, Hexyl Cubanomethyl Biguanide], in data set [1], the CC10 is 1.04 µM. Further, the IC50 with MDA-MB-231 stood at 15.4 µM; with LR/FR MCF7A1C cells (letrozole- and fulvestrant-resistant, 72 hours, crystal violet), 1300 nM; with MCF-7 cells (Homo sapiens, MTT, 24 hours treatment, curve fitting, read-out: IC50, proliferation of MCF-7 cells) it was 8.4 ± 1.2 µM; in the data set on MCF-7 cells (setting [5]) it was 8.4 µM; in the data set with mm006 [3] (Table 5, mm006, C57BL/6, Basal) it was 16.9 µM. In data set [2], the “parent metabolite peak area after 60 min” value is recorded as 48.18%. In addition, in data set [2], the degradation pathways result was “oxidation, dehydrogenation, and hydrogenation”. Further, the “OCR Inhibition [HCB] (uM) v vs. control (P < 0.05)” value in the data set on mm006 [4] worked out at 20 µM. The “fold increase in sensitivity, HCB vs HBB” value in the data set with LR/FR MCF7A1C cells (LR/FR and LR/FR/PR MCF7A1C cells) is around 3 fold.

These data come from patent publication US20240067603A1, “CUBANYL BIGUANIDE COMPOUNDS” (REGENTS OF THE UNIVERSITY OF MINNESOTA, priority 2020, published 2024).
